Test results published in patent US7678787B2, “Pyrrolobenzodiazepine pyridine carboxamides and derivatives as follicle-stimulating hormone receptor antagonists” (Wyeth, priority 2005, dated 2010).
Where two headings read alike, the source gives them in different places.

What was measured:
human FSH receptor = target: T1, human FSH receptor (Homo sapiens, UniProt P23945); assay: FSH receptor-dependent CRE-luciferase reporter gene assay (CHO FSH-R 6CRE-Luc cells); assay type: cell-based
T1 construct: host or cells: CHO-K1 (CHO FSH-R 6CRE-Luc, 1D7 cells)
T1 sequence (P23945 18-695): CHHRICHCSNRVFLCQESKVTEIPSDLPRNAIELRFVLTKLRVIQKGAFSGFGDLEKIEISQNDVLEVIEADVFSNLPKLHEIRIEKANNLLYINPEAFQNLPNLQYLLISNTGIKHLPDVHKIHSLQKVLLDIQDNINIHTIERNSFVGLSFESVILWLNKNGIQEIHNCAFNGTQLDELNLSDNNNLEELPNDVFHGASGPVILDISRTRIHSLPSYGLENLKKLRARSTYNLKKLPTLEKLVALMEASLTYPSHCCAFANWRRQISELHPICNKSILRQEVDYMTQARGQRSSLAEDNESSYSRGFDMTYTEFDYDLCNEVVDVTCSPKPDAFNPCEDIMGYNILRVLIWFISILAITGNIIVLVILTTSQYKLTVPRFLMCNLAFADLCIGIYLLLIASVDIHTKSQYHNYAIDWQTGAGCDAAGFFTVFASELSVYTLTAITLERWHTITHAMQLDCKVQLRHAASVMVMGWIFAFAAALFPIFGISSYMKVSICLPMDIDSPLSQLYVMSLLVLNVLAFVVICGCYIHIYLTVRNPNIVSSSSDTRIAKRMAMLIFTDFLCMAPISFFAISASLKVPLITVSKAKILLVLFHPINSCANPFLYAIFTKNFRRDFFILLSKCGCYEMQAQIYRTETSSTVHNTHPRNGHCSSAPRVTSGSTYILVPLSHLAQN

[1] = 2-dose format, test concentration in parentheses = 30 μM, percent inhibition of response to EC50 of FSH, read-out: CRE % inhibition

Row | SMILES | inhibition at 30 µM (human FSH receptor; [1]) [%] | melting point [°C] | inhibition at 30 µM (human FSH receptor; read-out: CRE % inhibition (μM)) [%]
1 | Cc1cc(C(=O)N2Cc3ccc(C(=O)NCc4cccnc4)n3Cc3ccccc32)ccc1-c1ccc(Cl)c(Cl)c1 [Example 25] | 11 | – | –
2 | O=C(c1ccccc1)c1ccccc1-c1ccc(C(=O)N2Cc3ccc(C(=O)NCc4cccnc4)n3Cc3ccccc32)cc1 [Example 60] | 29 | 198 to 199 | –
3 | COc1ccccc1-c1ccc(S(=O)(=O)N2Cc3ccc(C(=O)NCc4cccnc4)n3Cc3ccccc32)cc1 [Example 71] | 17.3 | – | –
4 | O=C(NCc1cccnc1)c1ccc2n1Cc1ccccc1N(S(=O)(=O)c1ccc(-c3ccccc3Cl)cc1)C2 [Example 72] | 6.61 | – | –
5 | O=C(NCc1cccnc1)c1ccc2n1Cc1ccccc1N(C(=O)c1ccccc1C(F)(F)F)C2 [Example 82] | 2.4 | 157 to 158 | –
6 | O=C(NCc1cccnc1)c1ccc2n1Cc1ccccc1N(C(=O)c1c(F)cccc1F)C2 [Example 86] | 40 | 103 to 109 | –
7 | COC(=O)c1ccc(C(=O)N2Cc3ccc(C(=O)NCc4cccnc4)n3Cc3ccccc32)cc1 [Example 87, METHYL 4-{[3-{[(PYRIDIN-3-YLMETHYL)AMINO]CARBONYL}-5H-PYRROLO[2,1-C][1,4]BENZODIAZEPIN-10(11H)-YL]CARBONYL}BENZOATE] | 38 | 170 to 172 | –
8 | N#Cc1ccc(C(=O)N2Cc3ccc(C(=O)NCc4cccnc4)n3Cc3ccccc32)cc1 [Example 90] | 13 | – | –
9 | O=C(NCc1cccnc1)c1ccc2n1Cc1ccccc1N(C(=O)c1ccc(Cl)cc1)C2 [Example 91] | 37 | – | –
10 | Cc1ccccc1C(=O)N1Cc2ccc(C(=O)NCc3cccnc3)n2Cc2ccccc21 [Example 94] | 17 | – | –
11 | O=C(NCc1cccnc1)c1ccc2n1Cc1ccccc1N(C(=O)c1cc(F)cc(F)c1)C2 [Example 95] | 45 | 138 to 140 | –
12 | O=C(NCc1cccnc1)c1ccc2n1Cc1ccccc1N(C(=O)c1ccccc1F)C2 [Example 97] | 18 | 142 to 143 | –
13 | O=C(NCc1cccnc1)c1ccc2n1Cc1ccccc1N(C(=O)c1ccc([N+](=O)[O-])cc1)C2 [Example 99] | 35 | – | –
14 | O=C(NCc1cccnc1)c1ccc2n1Cc1ccccc1N(C(=O)c1ccc(-c3cncnc3)cc1)C2 [Example 106] | 21 | 172 to 175 | –
15 | O=C(NCc1cccnc1)c1ccc2n1Cc1ccccc1N(C(=O)c1cccs1)C2 [Example 115] | 34 | – | –
16 | O=C(NCc1cccnc1)c1ccc2n1Cc1ccccc1N(C(=O)c1ccc(Cl)nc1)C2 [Example 117] | 24 | – | –
17 | O=C(NCc1cccnc1)c1ccc2n1Cc1ccccc1N(C(=O)c1cnccn1)C2 [Example 123] | 41 | – | –

Row | SMILES | inhibition at 30 µM (human FSH receptor; [1]) [%] | melting point [°C] | inhibition at 30 µM (human FSH receptor; read-out: CRE % inhibition (μM)) [%]
18 | O=C(NCc1cccnc1)c1ccc2n1Cc1ccccc1N(C(=O)c1cccnc1)C2 [Example 124] | 7 | – | –
19 | O=C(NCc1cccnc1)c1ccc2n1Cc1ccccc1N(C(=O)c1ccc(N3CCCCC3)nc1)C2 [Example 125] | – | – | 31
20 | O=C(NCc1cccnc1)c1ccc2n1Cc1ccccc1N(C(=O)c1ccc(NCCCc3ccccc3)nc1)C2 [Example 127] | 9 | – | –
21 | COc1cccc(CNc2ccc(C(=O)N3Cc4ccc(C(=O)NCc5cccnc5)n4Cc4ccccc43)cn2)c1 [Example 129] | 16 | – | –
22 | CN(Cc1ccccc1)c1ccc(C(=O)N2Cc3ccc(C(=O)NCc4cccnc4)n3Cc3ccccc32)cn1 [Example 130] | 26 | – | –
23 | O=C(NCc1cccnc1)c1ccc2n1Cc1ccccc1N(C(=O)c1ccc(NCCO)nc1)C2 [Example 132] | 26 | – | –
24 | O=C(NCc1cccnc1)c1ccc2n1Cc1ccccc1N(C(=O)c1ccc(OCc3ccccc3)nc1)C2 [Example 134] | 4 | – | –
25 | CC(C)(C)c1ccc(OCC(=O)N2Cc3ccc(C(=O)NCc4cccnc4)n3Cc3ccccc32)cc1 [Example 135] | 34 | 85 | –
26 | O=C(NCc1cccnc1)c1ccc2n1Cc1ccccc1N(C(=O)COc1ccccc1)C2 [Example 136] | 41 | – | –
27 | CC(Oc1ccccc1)C(=O)N1Cc2ccc(C(=O)NCc3cccnc3)n2Cc2ccccc21 (centres unmarked) [Example 137] | 16 | 83 | –
28 | O=C(NCc1cccnc1)c1ccc2n1Cc1ccccc1N(C(=O)CSc1ccc(Br)cc1)C2 [Example 141] | 32 | – | –
29 | O=C(NCc1cccnc1)c1ccc2n1Cc1ccccc1N(C(=O)Cc1ccc(-c3ccccc3)cc1)C2 [Example 143] | 48 | 153 to 155 | –
30 | O=C(NCc1cccnc1)c1ccc2n1Cc1ccccc1N(C(=O)/C=C/c1ccccc1)C2 [Example 144] | 35 | 175 | –
31 | O=C(NCc1cccnc1)c1ccc2n1Cc1ccccc1N(C(=O)c1cccc3ccccc13)C2 [Example 145] | 40 | 188 | –
32 | CC(C)(C)CC(=O)N1Cc2ccc(C(=O)NCc3cccnc3)n2Cc2ccccc21 [Example 148] | 35 | 103 to 107 | –
33 | O=C(NCc1cccnc1)c1ccc2n1Cc1ccccc1N(C(=O)C1CCCCC1)C2 [Example 149, 10-(CYCLOHEXYLCARBONYL)-N-(PYRIDIN-3-YLMETHYL)-10,11-DIHYDRO-5H-PYRROLO[2,1-C][1,4] BENZODIAZEPINE-3-CARBOXAMIDE] | 8 | – | –
34 | CC(C)C(=O)N1Cc2ccc(C(=O)NCc3cccnc3)n2Cc2ccccc21 [Example 150] | 20 | – | –
